In patent US10800791B2, “Triazole ACC inhibitors and uses thereof” (Gilead Apollo, LLC, priority 2015, dated 2020):
≈ marks a conversion by molar mass, not a printed value. Where two headings read alike, the source gives them in different places.

What was measured:
[1] = system: Fusarium moniliforme (Fm); assay: Growth inhibition assay of fungal pathogens, Fm; assay type: cell-based; conditions: for IC90: Fusarium verticillioides, 48 h, read-out: Concentration at 90% Inhibition Fm
How it was run: (§1)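 Spores from sub-cultured plates were diluted in 17% V8 liquid medium and exposed to compound from DMSO stocks at final concentrations of 50, 10 and 2 ppm or 2, 0.4 and 0.08 ppm. OD600 and visual ratings at 48 h were compared with the 2% DMSO control to give percent growth inhibition.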

[2] = target: fungal (fACC2) (UniProt Q00955); conditions: read-out: fACC2 (in vitro ACC2 Inhibition Assay, IC50), ADP-Glo, 5 nM ACC2, 20 μM ATP, 20 μM acetyl-CoA
[3] = system: Fusarium virguliforme (Fv); assay: Growth inhibition assay of fungal pathogens, Fv; assay type: cell-based; conditions: 48 h
How it was run: as §1

[4] = system: Rhizoctonia solani (Rs); assay: Growth inhibition assay of fungal pathogens, Rs; assay type: cell-based; conditions: 48 h
[5] = system: Botrtyis cinerea (Bc); assay: Growth inhibition assay of fungal pathogens, Bc; assay type: cell-based; conditions: 48 h
How it was run: as §1

[6] = system: C. parapsilosis; assay: Antifungal Activity Assay (broth microtiter MIC), C. parapsilosis; assay type: cell-based, Candida parapsilosis; conditions: Lodderomyces parapsilosis, ATCC22019, 48 h
How it was run: (§2)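 Susceptibility was determined by CLSI M27-A3 broth microdilution in RPMI 1640 buffered with MOPS. Growth inhibition was scored visually after 48 h.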

[7] = system: C. albicans; assay: Antifungal Activity Assay (broth microtiter MIC), C. albicans; assay type: cell-based, Candida albicans; conditions: Candida albicans, ATCC90028, 48 h
How it was run: as §2

[8] = target: human (hACC2) (Homo sapiens, UniProt O00763); assay: In vitro ACC inhibition assay (ADP-Glo), hACC2; assay type: biochemical; conditions: 5 nM ACC2, 20 μM ATP, 20 μM acetyl-CoA
Procedure: The detailed procedure is as follows. […] 10 μL ADP glo reagent was added. […] 20 μL kinase detection reagent was added.

[9] = system: Septoria tritici (St); assay: Growth inhibition assay of fungal pathogens, St; assay type: cell-based; conditions: Zymoseptoria tritici, 48 h
How it was run: as §1

[10] = system: Diplodia maydis (Dm); assay: Growth inhibition assay of fungal pathogens, Dm; assay type: cell-based; conditions: Stenocarpella maydis, 48 h
How it was run: as §1

[11] = Fusarium moniliforme, growth inhibition at 48 hours vs 2% DMSO control

Sequence of fungal (fACC2) (Q00955 whole entry): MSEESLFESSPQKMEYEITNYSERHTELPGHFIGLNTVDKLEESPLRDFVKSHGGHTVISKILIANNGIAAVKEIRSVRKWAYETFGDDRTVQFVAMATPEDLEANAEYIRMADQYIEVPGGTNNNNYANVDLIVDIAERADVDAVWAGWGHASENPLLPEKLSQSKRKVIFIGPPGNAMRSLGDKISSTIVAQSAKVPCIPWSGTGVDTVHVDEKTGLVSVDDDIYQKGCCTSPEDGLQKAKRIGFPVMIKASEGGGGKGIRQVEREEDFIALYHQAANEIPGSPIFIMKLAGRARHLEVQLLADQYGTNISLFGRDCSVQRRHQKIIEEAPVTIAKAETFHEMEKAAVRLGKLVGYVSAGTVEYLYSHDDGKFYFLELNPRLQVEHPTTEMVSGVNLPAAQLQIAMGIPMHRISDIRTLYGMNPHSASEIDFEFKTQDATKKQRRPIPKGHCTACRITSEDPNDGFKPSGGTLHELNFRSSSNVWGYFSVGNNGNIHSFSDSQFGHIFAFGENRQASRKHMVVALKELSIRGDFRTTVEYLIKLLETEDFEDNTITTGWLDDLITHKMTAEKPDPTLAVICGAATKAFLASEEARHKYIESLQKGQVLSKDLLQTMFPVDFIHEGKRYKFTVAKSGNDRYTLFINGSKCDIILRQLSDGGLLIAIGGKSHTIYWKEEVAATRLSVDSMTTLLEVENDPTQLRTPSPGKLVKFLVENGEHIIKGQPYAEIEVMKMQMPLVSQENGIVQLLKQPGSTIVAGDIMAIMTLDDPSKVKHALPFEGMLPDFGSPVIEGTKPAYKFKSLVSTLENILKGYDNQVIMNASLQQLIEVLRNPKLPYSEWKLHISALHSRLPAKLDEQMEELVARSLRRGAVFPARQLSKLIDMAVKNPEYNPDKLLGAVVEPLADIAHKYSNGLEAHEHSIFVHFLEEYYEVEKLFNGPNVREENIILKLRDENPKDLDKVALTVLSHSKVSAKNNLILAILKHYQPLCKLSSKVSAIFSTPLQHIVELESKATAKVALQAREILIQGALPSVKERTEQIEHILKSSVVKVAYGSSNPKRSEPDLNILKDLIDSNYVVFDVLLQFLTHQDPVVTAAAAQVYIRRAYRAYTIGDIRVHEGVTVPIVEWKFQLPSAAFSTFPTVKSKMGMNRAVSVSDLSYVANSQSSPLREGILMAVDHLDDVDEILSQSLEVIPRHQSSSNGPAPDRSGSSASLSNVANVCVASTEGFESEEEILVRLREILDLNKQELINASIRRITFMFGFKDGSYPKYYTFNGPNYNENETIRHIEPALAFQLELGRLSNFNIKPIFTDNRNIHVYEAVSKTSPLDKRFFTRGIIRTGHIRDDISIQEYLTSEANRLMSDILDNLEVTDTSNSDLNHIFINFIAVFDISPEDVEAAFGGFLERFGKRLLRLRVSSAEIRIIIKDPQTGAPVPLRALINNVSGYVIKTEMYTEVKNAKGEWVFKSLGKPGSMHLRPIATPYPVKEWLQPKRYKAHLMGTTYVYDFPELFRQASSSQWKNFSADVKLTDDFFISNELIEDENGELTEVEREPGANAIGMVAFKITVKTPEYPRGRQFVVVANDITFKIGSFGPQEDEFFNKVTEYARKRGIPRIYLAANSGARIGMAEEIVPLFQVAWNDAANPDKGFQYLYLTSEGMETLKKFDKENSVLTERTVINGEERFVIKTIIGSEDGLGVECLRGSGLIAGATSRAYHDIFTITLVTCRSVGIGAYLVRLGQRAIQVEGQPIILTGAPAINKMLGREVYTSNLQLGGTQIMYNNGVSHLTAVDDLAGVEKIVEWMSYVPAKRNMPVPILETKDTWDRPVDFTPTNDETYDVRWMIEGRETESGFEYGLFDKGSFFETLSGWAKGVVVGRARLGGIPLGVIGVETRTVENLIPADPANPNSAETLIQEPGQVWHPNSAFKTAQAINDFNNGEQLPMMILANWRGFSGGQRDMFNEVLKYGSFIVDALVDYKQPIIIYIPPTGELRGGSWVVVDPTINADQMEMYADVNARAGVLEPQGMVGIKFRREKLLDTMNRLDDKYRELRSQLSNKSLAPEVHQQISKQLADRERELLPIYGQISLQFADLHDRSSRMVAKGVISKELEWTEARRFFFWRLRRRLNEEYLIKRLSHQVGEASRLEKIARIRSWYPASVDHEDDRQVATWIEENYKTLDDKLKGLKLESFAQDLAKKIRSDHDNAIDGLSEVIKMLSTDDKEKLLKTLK
Sequence of human (hACC2) (O00763 whole entry): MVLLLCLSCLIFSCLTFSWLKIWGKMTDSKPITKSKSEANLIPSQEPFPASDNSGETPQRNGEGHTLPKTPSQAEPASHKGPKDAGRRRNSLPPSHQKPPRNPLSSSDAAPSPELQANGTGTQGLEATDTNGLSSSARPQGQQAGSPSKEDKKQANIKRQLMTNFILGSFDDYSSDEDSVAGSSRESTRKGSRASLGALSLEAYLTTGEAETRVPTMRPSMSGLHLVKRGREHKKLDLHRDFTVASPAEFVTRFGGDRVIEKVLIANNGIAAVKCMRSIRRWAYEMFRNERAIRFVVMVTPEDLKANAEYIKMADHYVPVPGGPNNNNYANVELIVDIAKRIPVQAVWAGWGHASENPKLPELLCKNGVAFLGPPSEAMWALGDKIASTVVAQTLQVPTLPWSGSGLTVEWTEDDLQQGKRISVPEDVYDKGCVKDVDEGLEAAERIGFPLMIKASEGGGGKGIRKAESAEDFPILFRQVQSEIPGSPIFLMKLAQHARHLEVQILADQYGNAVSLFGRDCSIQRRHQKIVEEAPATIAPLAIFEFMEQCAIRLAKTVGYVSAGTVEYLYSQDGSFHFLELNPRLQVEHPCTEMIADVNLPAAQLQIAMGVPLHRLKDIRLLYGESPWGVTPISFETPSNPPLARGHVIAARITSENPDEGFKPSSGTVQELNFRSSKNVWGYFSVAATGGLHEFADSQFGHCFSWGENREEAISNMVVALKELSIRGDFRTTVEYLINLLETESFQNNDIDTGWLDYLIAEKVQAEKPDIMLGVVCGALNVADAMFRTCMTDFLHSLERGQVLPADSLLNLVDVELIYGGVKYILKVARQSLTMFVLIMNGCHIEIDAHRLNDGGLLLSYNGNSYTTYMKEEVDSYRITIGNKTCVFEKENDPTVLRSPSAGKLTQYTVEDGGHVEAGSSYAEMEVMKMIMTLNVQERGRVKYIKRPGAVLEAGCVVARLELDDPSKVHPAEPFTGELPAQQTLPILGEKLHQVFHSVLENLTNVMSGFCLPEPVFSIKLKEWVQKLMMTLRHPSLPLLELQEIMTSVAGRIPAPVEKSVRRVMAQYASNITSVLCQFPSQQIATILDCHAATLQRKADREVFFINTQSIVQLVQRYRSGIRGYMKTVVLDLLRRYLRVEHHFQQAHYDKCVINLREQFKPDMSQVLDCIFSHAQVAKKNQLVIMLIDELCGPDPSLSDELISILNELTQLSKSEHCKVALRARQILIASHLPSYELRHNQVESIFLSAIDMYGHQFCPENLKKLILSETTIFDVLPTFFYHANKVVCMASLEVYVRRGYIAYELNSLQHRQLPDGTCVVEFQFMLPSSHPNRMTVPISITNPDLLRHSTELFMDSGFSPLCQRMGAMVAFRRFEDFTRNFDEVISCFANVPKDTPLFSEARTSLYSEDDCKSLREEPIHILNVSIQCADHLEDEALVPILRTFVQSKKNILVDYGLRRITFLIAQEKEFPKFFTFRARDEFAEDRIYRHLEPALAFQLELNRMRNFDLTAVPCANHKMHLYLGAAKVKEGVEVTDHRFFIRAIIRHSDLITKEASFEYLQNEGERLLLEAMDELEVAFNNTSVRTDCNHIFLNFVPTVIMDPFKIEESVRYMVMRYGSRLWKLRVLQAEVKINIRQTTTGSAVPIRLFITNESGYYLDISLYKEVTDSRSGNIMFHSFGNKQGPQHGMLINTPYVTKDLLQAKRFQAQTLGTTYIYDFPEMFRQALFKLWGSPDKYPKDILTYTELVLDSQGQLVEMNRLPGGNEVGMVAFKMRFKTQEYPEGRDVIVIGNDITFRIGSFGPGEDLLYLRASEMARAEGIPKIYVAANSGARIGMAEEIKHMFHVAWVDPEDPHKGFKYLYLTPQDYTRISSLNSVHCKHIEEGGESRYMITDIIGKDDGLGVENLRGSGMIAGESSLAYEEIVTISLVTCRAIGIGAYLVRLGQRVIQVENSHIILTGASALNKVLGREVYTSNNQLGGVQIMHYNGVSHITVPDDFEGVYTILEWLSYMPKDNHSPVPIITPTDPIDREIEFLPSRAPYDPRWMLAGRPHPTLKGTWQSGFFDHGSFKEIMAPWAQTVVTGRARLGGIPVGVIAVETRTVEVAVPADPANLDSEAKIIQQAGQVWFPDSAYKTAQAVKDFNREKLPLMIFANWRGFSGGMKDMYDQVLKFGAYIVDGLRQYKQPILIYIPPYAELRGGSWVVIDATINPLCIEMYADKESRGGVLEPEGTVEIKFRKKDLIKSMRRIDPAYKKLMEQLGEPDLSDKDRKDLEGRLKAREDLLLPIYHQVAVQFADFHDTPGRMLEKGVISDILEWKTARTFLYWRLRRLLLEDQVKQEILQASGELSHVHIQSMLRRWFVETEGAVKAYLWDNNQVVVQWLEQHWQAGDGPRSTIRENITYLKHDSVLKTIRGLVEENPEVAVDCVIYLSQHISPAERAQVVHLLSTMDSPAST

`COc1ccc(F)cc1[C@H](Cn1c(=O)n(C(C)(C)C(=O)NC2CCCCC2)c(=O)c2c(C)c(-n3nccn3)sc21)OC1CCOCC1` [Compound I-28, (R)—N-cyclohexyl-2-(1-(2-(5-fluoro-2-methoxyphenyl)-2-((tetrahydro-2H-pyran-4-yl)oxy)ethyl)-5-methyl-2,4-dioxo-6-(2H-1,2,3-triazol-2-yl)-1,4-dihydrothieno[2,3-d]pyrimidin-3(2H)-yl)-2-methylpropanamide] was tested. Which “Concentration at 90% Inhibition Fm” value [1, 11] did it give?
The value was “AA (compound concentration of 0.08 ppm at 90% inhibition of fungal pathogens)”.

What about the IC90 [1] of the same compound?
Its IC90 is 0.08 µg/mL (≈ 0.12 µM).

And the IC50 ([2]; Table 2a)?
The IC50 was 1 to 5 nM.

And the IC50 ([2]; Table 2b, additional results)?
The IC50 was 1 to 5 nM.

What about the IC90 ([3]; read-out: Concentration at 90% Inhibition Fv, Fusarium virguliforme, growth inhibition at 48 hours vs 2% DMSO control) of the same compound?
Its IC90 is 0.4 µg/mL (≈ 0.598 µM).

What about the IC90 ([3]; read-out: Concentration at 90% Inhibition Fv, Fusarium virguliforme, growth inhibition vs 2% DMSO control at 48 hours) of the same compound?
Its IC90 is 0.4 µg/mL (≈ 0.598 µM).

What about the IC90 ([4]; read-out: Concentration at 90% Inhibition Rs, Rhizoctonia solani, mycelial plugs, growth inhibition at 48 hours vs 2% DMSO control) of the same compound?
Its IC90 is 0.4 µg/mL (≈ 0.598 µM).

And the IC90 ([4]; read-out: Concentration at 90% Inhibition Rs, Rhizoctonia solani, mycelial plugs, growth inhibition vs 2% DMSO control at 48 hours)?
Its IC90 is 0.4 µg/mL (≈ 0.598 µM).

And the IC90 ([5]; read-out: Concentration at 90% Inhibition Bc, Botrtyis cinerea, growth inhibition at 48 hours vs 2% DMSO control)?
Its IC90 is 0.4 µg/mL (≈ 0.598 µM).

And the IC90 ([5]; read-out: Concentration at 90% Inhibition Bc, Botrtyis cinerea, growth inhibition vs 2% DMSO control at 48 hours)?
The IC90 was 0.4 µg/mL (≈ 0.598 µM).

And the MIC ([6]; read-out: MIC, C. parapsilosis ATCC 22019, Table 3a, 3 replicates, MIC recorded at 48 h)?
The MIC was 0.25 to 1 µg/mL (≈ 0.374 to 1.5 µM).

What about the MIC ([6]; read-out: MIC, C. parapsilosis ATCC 22019, Table 3b (additional results), 3 replicates, MIC recorded at 48 h) of the same compound?
The MIC was 0.25 to 1 µg/mL (≈ 0.374 to 1.5 µM).

What about the MIC ([7]; read-out: MIC, C. albicans ATCC 90028, Table 3a, 3 replicates, MIC recorded at 48 h) of the same compound?
The MIC was 0.25 to 1 µg/mL (≈ 0.374 to 1.5 µM).

And the MIC ([7]; read-out: MIC, C. albicans ATCC 90028, Table 3b (additional results), 3 replicates, MIC recorded at 48 h)?
Its MIC is 0.25 to 1 µg/mL (≈ 0.374 to 1.5 µM).

What about the IC50 ([8]; Table 2a) of the same compound?
The IC50 was 10 to 40 nM.

And the IC50 ([8]; Table 2b, additional results)?
The IC50 was 10 to 40 nM.

What about the IC90 ([9]; read-out: Concentration at 90% Inhibition St, Septoria tritici, growth inhibition at 48 hours vs 2% DMSO control) of the same compound?
The IC90 was 2 µg/mL (≈ 2.99 µM).

And the IC90 ([9]; read-out: Concentration at 90% Inhibition St, Septoria tritici, growth inhibition vs 2% DMSO control at 48 hours)?
The IC90 was 10 µg/mL (≈ 15 µM).

And the IC90 ([10]; read-out: Concentration at 90% Inhibition Dm, Diplodia maydis, growth inhibition at 48 hours vs 2% DMSO control)?
Its IC90 is 0.4 µg/mL (≈ 0.598 µM).

What about the IC90 ([10]; read-out: Concentration at 90% Inhibition Dm, Diplodia maydis, growth inhibition vs 2% DMSO control at 48 hours) of the same compound?
The IC90 was 0.4 µg/mL (≈ 0.598 µM).

With `COc1ccc(F)cc1[C@H](Cn1c(=O)n(C(C)(C)C(=O)NCC(C)C)c(=O)c2c(C)c(-n3nccn3)sc21)OC1CCOCC1` [Compound I-29, (R)-2-(1-(2-(5-fluoro-2-methoxyphenyl)-2-((tetrahydro-2H-pyran-4-yl)oxy)ethyl)-5-methyl-2,4-dioxo-6-(2H-1,2,3-triazol-2-yl)-1,4-dihydro-thieno[2,3-d]pyrimidin-3(2H)-yl)-N-isobutyl-2-methylpropanamide] as the compound, how does the IC90 [1, 11] read?
The IC90 was 0.08 µg/mL (≈ 0.124 µM).

And the IC90 ([1]; Fusarium moniliforme, growth inhibition vs 2% DMSO control at 48 hours)?
Its IC90 is 0.08 µg/mL (≈ 0.124 µM).

What about the IC50 ([2]; Table 2a) of the same compound?
Its IC50 is 1 to 5 nM.

What about the IC50 ([2]; Table 2b, additional results) of the same compound?
Its IC50 is 1 to 5 nM.

What about the IC90 ([3]; growth inhibition at 48 hours vs 2% DMSO control, read-out: Concentration at 90% Inhibition Fv) of the same compound?
Its IC90 is 0.4 µg/mL (≈ 0.622 µM).

What about the IC90 ([3]; growth inhibition vs 2% DMSO control at 48 hours, read-out: Concentration at 90% Inhibition Fv) of the same compound?
Its IC90 is 0.4 µg/mL (≈ 0.622 µM).

And the IC90 ([4]; mycelial plugs, growth inhibition at 48 hours vs 2% DMSO control, read-out: Concentration at 90% Inhibition Rs)?
Its IC90 is 2 µg/mL (≈ 3.11 µM).

And the IC90 ([4]; mycelial plugs, growth inhibition vs 2% DMSO control at 48 hours, read-out: Concentration at 90% Inhibition Rs)?
The IC90 was 2 µg/mL (≈ 3.11 µM).

What about the IC90 ([5]; Botrtyis cinerea, growth inhibition at 48 hours vs 2% DMSO control, read-out: Concentration at 90% Inhibition Bc) of the same compound?
The IC90 was 0.4 µg/mL (≈ 0.622 µM).

And the IC90 ([5]; Botrtyis cinerea, growth inhibition vs 2% DMSO control at 48 hours, read-out: Concentration at 90% Inhibition Bc)?
The IC90 was 0.4 µg/mL (≈ 0.622 µM).

What about the MIC ([6]; Table 3a, ATCC 22019, 3 replicates, MIC recorded at 48 h, read-out: MIC, C. parapsilosis ATCC 22019) of the same compound?
Its MIC is 0.25 to 1 µg/mL (≈ 0.389 to 1.56 µM).

And the MIC ([6]; Table 3b (additional results), ATCC 22019, 3 replicates, MIC recorded at 48 h, read-out: MIC, C. parapsilosis ATCC 22019)?
The MIC was 0.25 to 1 µg/mL (≈ 0.389 to 1.56 µM).

What about the MIC ([7]; Table 3a, ATCC 90028, 3 replicates, MIC recorded at 48 h, read-out: MIC, C. albicans ATCC 90028) of the same compound?
Its MIC is 0.25 to 1 µg/mL (≈ 0.389 to 1.56 µM).

And the MIC ([7]; Table 3b (additional results), ATCC 90028, 3 replicates, MIC recorded at 48 h, read-out: MIC, C. albicans ATCC 90028)?
Its MIC is 0.06 to 0.249 µg/mL (≈ 0.0933 to 0.387 µM).

And the IC50 ([8]; Table 2a)?
The IC50 was 5 to 10 nM.

And the IC50 ([8]; Table 2b, additional results)?
Its IC50 is 5 to 10 nM.

And the IC90 ([9]; Septoria tritici, growth inhibition at 48 hours vs 2% DMSO control, read-out: Concentration at 90% Inhibition St)?
The IC90 was 10 µg/mL (≈ 15.6 µM).

And the IC90 ([9]; Septoria tritici, growth inhibition vs 2% DMSO control at 48 hours, read-out: Concentration at 90% Inhibition St)?
The IC90 was greater than 50 µg/mL.

What about the IC90 ([10]; Diplodia maydis, growth inhibition at 48 hours vs 2% DMSO control, read-out: Concentration at 90% Inhibition Dm) of the same compound?
The IC90 was 0.4 µg/mL (≈ 0.622 µM).

What about the IC90 ([10]; Diplodia maydis, growth inhibition vs 2% DMSO control at 48 hours, read-out: Concentration at 90% Inhibition Dm) of the same compound?
Its IC90 is 0.4 µg/mL (≈ 0.622 µM).
